Reference: patent US20250213547A1, “METHODS OF TREATING NEUROLOGICAL DISEASES” (priority 2022, published 2025)

Tested on: seizure frequency in pediatric patients with Dravet syndrome or Lennox-Gastaut syndrome
Experiment: ELEKTRA: percent change in seizure frequency from baseline
Format: in vivo, human
Conditions: for Number of patients with 25% reduction in seizures (responders) / Number of patients with 50% reduction in seizures (responders) / Number of patients with 75% reduction in seizures (responders) / Number of patients with 100% reduction in seizures (responders): maintenance period; for Median percent change in seizure frequency from baseline / Range of percent change in seizure frequency from baseline / seizure frequency change from baseline versus placebo: ELEKTRA; for Median percent change in seizure frequency from baseline / Range of percent change in seizure frequency from baseline: N 64; for seizure frequency change from baseline versus placebo: pediatric DEE patients
Description: Other inclusion criteria were body weight ≥10 kg, currently taking a fixed dosage of 1 to 4 antiseizure medications, and failure to remain seizure free after trying at least two antiseizure medications. Convulsive seizures include focal to bilateral tonic-clonic with impaired awareness, hemi-clonic, simultaneous bilateral clonic, and generalized tonic-clonic seizures. Drop seizures can involve the entire body, trunk, or head which leads to falling. […] Approximately 126 patients ages ≥2 and ≤17 years were enrolled in the study. The study included two main phases, a 4-6 week screening and baseline period, and a 20-week treatment period. Patients received doses twice a day in a tablet formulation. The starting dose was adjusted according to the patient's body weight (Table 17).
During the first 8 weeks of treatment patient dosing was a titrated for individual optimization. The remaining 12-weeks of treatment consisted of a maintenance phase. The study began with treating patients ≥9 years of age for one month before treating younger patients. Blood was collected for PK analysis on the first dosage day within one hour of the morning dose, and 30 minutes, and 1, 2, 3, and 4 hours post-dose. Subsequent blood sampling took place before the morning dose and 30 minutes post-dose. Blood samples were obtained at scheduled times for determining PK profile and Tmax, which is the time Cmax was reached. A patient's seizure frequency was recorded before and during the trial to calculate percent change from baseline.
The ELEKTRA study is described in the specification and in examples 12 and 13. […] Statistical significance was computed using a Rank Transformed Analysis of Covariance (ANCOVA) with a 2-side p-value, while adjusting for baseline seizure frequency and indication.

[1] = Dravet syndrome, Weeks 9-20, N 24

O=C(c1cccnc1-c1ccncc1)N1CCC(O)(Cc2ccccc2)CC1 [soticlestat]
Median percent change in convulsive seizure frequency per 28 days from baseline [1]: −36.5% | Range of percent change in convulsive seizure frequency per 28 days from baseline [1]: (−100 to 84.1) % | Number of patients with 25% reduction in seizures (responders) (Dravet syndrome, N 24): 66.7 | Number of patients with 50% reduction in seizures (responders) (Dravet syndrome, N 24): 41.7 | Number of patients with 75% reduction in seizures (responders) (Dravet syndrome, N 24): 20.8 | Number of patients with 100% reduction in seizures (responders) (Dravet syndrome, N 24): 8.3 | Median percent change in seizure frequency from baseline (Weeks 0-20): −30.05% | Range of percent change in seizure frequency from baseline (Weeks 0-20): (−100-347.5) % | Median percent change in seizure frequency from baseline (Weeks 9-20): −27.76% | Range of percent change in seizure frequency from baseline (Weeks 9-20): (−100 to 160.6) % | Median percent change from baseline in drop seizure frequency per 28 days (Lennox-Gastaut syndrome, Weeks 9-20, N 40): −18.46% | Number of patients with 25% reduction in seizures (responders) (Lennox-Gastaut syndrome, N 40): 42.5 | Number of patients with 50% reduction in seizures (responders) (Lennox-Gastaut syndrome, N 40): 27.5 | Number of patients with 75% reduction in seizures (responders) (Lennox-Gastaut syndrome, N 40): 10 | Number of patients with 100% reduction in seizures (responders) (Lennox-Gastaut syndrome, N 40): 5 | seizure frequency change from baseline versus placebo: highly significant | seizure frequency change from baseline versus placebo (listed as Soticlestat): significantly decreased seizure frequency
